Read-outs that look alike come from different tables or passages of the source. Each block holds one compound with its values, some of them ahead of it. Peptide text beside a SMILES is read from it. * marks the point of attachment. Fluorescein(5-NHCOCH2) = O=C(C*)Nc1ccc2c(c1)C(=O)OC21c2ccc(O)cc2Oc2cc(O)ccc21
Key:
[1] = tested on: hsCRE24 (CRE half-site DNA, ATGAC); assay: Electrophoretic mobility shift assay, binding to hsCRE24 DNA; settings: for DNA binding: EMSA
Experimental: Miniature protein-binding to DNA was measured using an electrophoretic mobility shift assay performed in a Model SE600 Dual-Controller Vertical Slab Unit (Hoefer) using 14×16 cm gel plates. Temperature was controlled using a constant temperature bath. Reactions were performed in a binding buffer composed of 137 mM NaCl, 2.7 mM KCl, 4.3 mM Na2HPO4, 1.4 mM NaH2PO4 (pH 7.4), 1 mM EDTA, 0.1% NP-40, 0.4 mg/ml BSA (non-acetylated) and 5% glycerol. For experiments involving the bZIP peptide C/EBP152, the binding buffer was supplemented with 2 mM dithiothreitol. Serial peptide dilutions were performed as 1:1 dilutions with binding buffer. In general, 0.002 ml of gamma ^32P-labeled, double-stranded DNA (CRE24, hsCRE24, C/EBP24 or hsCEBP24; final concentration ≦50 pM in binding buffer; final concentration ≦5 pM for peptides with Kapp <500 pM) in binding buffer were added to 0.008 ml of a serial peptide dilution on ice. Peptide-DNA mixtures were incubated for thirty minutes on ice and then applied to a pre-equilibrated, native polyacrylamide gel (8% acrylamide:bisacrylamide) prepared in 10 mM Tris buffer (pH. 8.1). Gels were allowed to run 0.75 to 1.5 hours at 500 V and were dried on a Model SE1160 Drygel Sr. gel dryer (Hoefer). The gels were analyzed using a Storm 840 Phosphorimager (Molecular Dynamics). Amounts of free and bound DNA were quantified and analyzed using the program KaleidaGraph 3.0 (Synergy Software). Dissociation constants were determined by fitting the data to the Langmuir equation=c[(1+(Kapp/peptideT^n))^−1] where n=1 for PPEBP^SR and EBP^SR and n=2 for C/EBP152. In these equations, theta=cpm in protein-DNA complex/(cpm in protein-DNA complex+cpm free DNA); peptideT=the total peptide concentration and c is an adjustable parameter representing the maximum value of theta (c ≦1; for many peptides c was defined as 1). Values reported represent the average of at least three independent trials ±the standard error. Error bars on the plots represent the standard error for each data point.

[2] = target: T1, HisKIX (His-tagged CBP KIX domain) (Mus musculus, UniProt P45481); assay: Equilibrium fluorescence polarization, HisKIX binding; settings: 25° C.
T1 construct: The CBP KIX-coding region (residues 586 to 672) of pGEX-KT KIX 10-672; made in house; host or cells: E. coli BL21(DE3) pArg

[3] = 4° C., read-out: affinity (Kd) for hsCRE
[4] = physiological ionic strength, read-out: equilibrium dissociation constant (Kd) of binding to hsCRE

T1 sequence (P45481 586-672): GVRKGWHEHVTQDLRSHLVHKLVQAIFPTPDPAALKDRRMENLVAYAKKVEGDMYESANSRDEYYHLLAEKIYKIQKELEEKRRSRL

DNA binding [1]: No significant DNA binding was detected
Compound: PPBRO^SR: polyproline helix-basic region peptide, SEQ ID NO: 8, lacking DNA-contact residue(s) (GPSQPTYPGDDAPVEDLKRFRNTLAAYLSVVRKLQRMKQ; Pancreatic polypeptide basic region PPBR0)

delta, delta-G, hsCRE24 in preference to hsCEBP24 [1]: -4.4 kcal/mol
ratio of protein concentrations required to bind one-half of the two DNA [1]: 2600
delta, delta-G of discrimination against mutations at the 5′ terminus of hsCRE ([1]; 4° C.): -1.7 kcal/mol
Kd [1, 3]: 1.9 ± 0.2 nM
specificity ratio Krel, hsCRE24 in preference to hsCEBP24 ([1]; Krel (Kd(hsCRE)/Kd(hsCEPB))): 2600
formation of the hsCRE24 complex in presence of competitor DNA ([1]; high concentrations of poly (dIdC)-(dIdC) or a scrambled CRE site (NON)): unaffected
Kd [1, 4]: 1.5 nM
Compound: GPSQPTYPGDDAPVEDLKRFRNTLAARRSRARKAARAAA [PPBR4^SR]
DNA binding at 25° C. [1]: Neither PPBR4 nor G27 showed evidence of DNA binding

Kd ([2]; fluorescein-labeled unphosphorylated peptide, read-out: Kd HisKIX, unphosphorylated peptide (U)): 2300 ± 200 nM
Kd ([2]; label shows phosphorylated (P) or unphosphorylated (U) form, read-out: Kd HisKIX): 1500 to 3100 nM
Compound: CC[C@H](C)[C@H](NC(=O)[C@H](Cc1ccc(O)cc1)NC(=O)[C@H](Cc1ccccc1)NC(=O)[C@H](Cc1ccccc1)NC(=O)[C@H](CO)NC(=O)[C@H](CC(C)C)NC(=O)[C@H](CCCNC(=N)N)NC(=O)[C@H](CCCNC(=N)N)NC(=O)[C@@H](NC(=O)[C@@H]1CCCN1C(=O)[C@H](C)NC(=O)[C@H](CC(=O)O)NC(=O)[C@H](CC(=O)O)NC(=O)CNC(=O)[C@H](Cc1c[nH]c2ccccc12)NC(=O)[C@H](CCC(=O)O)NC(=O)[C@@H](NC(=O)[C@H](Cc1ccc(O)cc1)NC(=O)[C@@H]1CCCN1C(=O)[C@H](CO)NC(=O)[C@H](CC(C)C)NC(=O)CN)[C@@H](C)O)C(C)C)C(=O)N[C@@H](CC(C)C)C(=O)N[C@@H](CC(C)C)C(=O)N[C@@H](CC(=O)O)C(=O)N[C@@H](CC(C)C)C(=O)N[C@@H](Cc1ccc(O)cc1)C(=O)N[C@@H](CC(C)C)C(=O)N[C@@H](CC(=O)O)C(=O)N[C@@H](C)C(=O)N1CCC[C@H]1C(=O)NCC(=O)N[C@H](C(=O)N[C@@H](CSCC(=O)Nc1ccc2c(c1)C(=O)OC21c2ccc(O)cc2Oc2cc(O)ccc21)C(N)=O)C(C)C [PPKID7] (H-GLSPYTEWGDDAPVRRLSFFYILLDLYLDAPGVC(Fluorescein(5-NHCOCH2))-NH2)

DNA binding [1]: No significant DNA binding was detected
Compound: PPBR10^SR: polyproline helix-basic region peptide, SEQ ID NO: 9 (GPSQPTYPGDDAPVEDLKRFRNTLAAYLSRLRKAARAAA; Pancreatic polypeptide basic region PPBR10)

Kd [1, 4]: 5 nM
Compound: GPSQPTYPGDDAPVEDLKRFRNTLAARRSRARKLQRMKQ [PPBR2^SR]

DNA binding [1]: No significant DNA binding was detected
Compound: PPBR11^SR: polyproline helix-basic region peptide, SEQ ID NO: 10 (GPSQPTYPGDDAPVEDLKRFRNTLAARLSRLRKAARAAA; Pancreatic polypeptide basic region PPBR11)

stability of hsCRE24 complex lower than that of PPBR4^SR-hsCRE24 complex [1]: 3.1 kcal/mol
Kd [1, 3]: 410 ± 53 nM
Compound: DPAALKRARNTEAARRSRARKLQRMQC [G27, reference compound]
DNA binding at 25° C. [1]: Neither PPBR4 nor G27 showed evidence of DNA binding

Source: patent US20110028686A1, “Protein binding miniature proteins” (Yale University, priority 2000, published 2011)
